Laboratory results from US20090176792A1, “SUBSTITUTED DIBENZHYDRYLPIPERAZINES” (AUSPEX PHARMACEUTICALS, INC., priority 2008, published 2009).

Experiments:
[1] = In vitro liver microsomal stability assay; settings: human liver microsomes 1 mg per mL, 1 μM, 37° C., vs non-isotopically enriched drug
Description: Test compounds were prepared as solutions in 20% acetonitrile-water and added to the assay mixture (final assay concentration 1 μM) and incubated at 37° C. Final concentration of acetonitrile in the assay should be <1%. Aliquots (50 μL) were taken out at times 0, 15, 30, 45, and 60 min, and diluted with ice cold acetonitrile (200 μL) to stop the reactions. Samples were centrifuged at 12,000 RPM for 10 min to precipitate proteins. Supernatants were transferred to micro centrifuge tubes and stored for LC/MS/MS analysis of the degradation half-life of the test compounds.

cytochrome P450 CYP2D6 = cytochrome P450 CYP2D6 (Homo sapiens, UniProt P10635); settings: cited from earlier work
cytochrome P450 CYP2D6, sequence (P10635 whole entry): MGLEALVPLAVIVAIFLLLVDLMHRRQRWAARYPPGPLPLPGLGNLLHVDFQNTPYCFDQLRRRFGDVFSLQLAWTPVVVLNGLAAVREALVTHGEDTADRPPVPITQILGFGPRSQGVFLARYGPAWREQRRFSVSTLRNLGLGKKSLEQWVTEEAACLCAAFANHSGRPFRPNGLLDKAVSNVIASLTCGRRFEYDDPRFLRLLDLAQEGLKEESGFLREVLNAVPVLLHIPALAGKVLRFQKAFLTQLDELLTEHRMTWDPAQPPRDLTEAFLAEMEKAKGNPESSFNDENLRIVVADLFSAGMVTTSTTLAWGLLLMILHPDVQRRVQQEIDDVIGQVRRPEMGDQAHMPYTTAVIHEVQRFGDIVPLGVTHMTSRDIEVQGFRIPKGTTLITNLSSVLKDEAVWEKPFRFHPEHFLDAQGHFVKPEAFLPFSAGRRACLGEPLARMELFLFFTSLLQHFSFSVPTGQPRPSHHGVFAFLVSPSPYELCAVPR

| SMILES | % Increase of HLM degradation half-life ([1]; column 0%-5%) | inhibition of cytochrome P450 CYP2D6 (cytochrome P450 CYP2D6) | % Increase of HLM degradation half-life ([1]; column 5-15%) |
| --- | --- | --- | --- |
| CN1CCN(C(c2ccccc2)c2ccccc2)CC1 [Example 1, 1-benzhydryl-4-methylpiperazine] | + (0%-5%) | inhibit |  |
| [2H]C([2H])([2H])N1CCN(C(c2ccccc2)c2ccccc2)CC1 [Example 2, d3-1-Benzhydryl-4-methylpiperazine] |  |  | + (5-15%) |
